Data on three molecules can be found in patent US20240182495A1, “ANTIBACTERIAL COMPOUNDS” (JANSSEN SCIENCES IRELAND UNLIMITED COMPANY, priority 2021, published 2024).

In brackets after ≈: the same amount, converted by molar mass. Where two headings read alike, the source gives them in different places.

A short description of data set [1]: LM Clint (microsomal stability), human. It is filed as in vitro ADME. From the text: (§1) The compounds of the invention/examples may have advantages associated with in vitro potency, kill kinetics (i.e. bactericidal effect) in vitro, PK properties, food effect, safety/toxicity (including liver toxicity, coagulation, 5-LO oxygenase), metabolic stability, Ames II negativity, MINT negativity, aqueous based solubility (and ability to formulate) and/or cardiovascular effect e.g. on animals (e.g. anesthetized guinea pig). Data that is generated/calculated may be obtained using standard methods/assays, for instance that are available in the literature or which may be performed by a supplier (e.g. Microsomal Stability Assay—Cyprotex, Mitochondrial toxicity (Glu/Gal) assay—Cyprotex, as well as literature CYP cocktail inhibition assays). GSH can be measured (reactive metabolites, […]) to observe if a dihydrodiol is observed by LCMS (fragmentation ions), which would correspond to a dihydroxylation on the core heterocycle.

In another data set the target is hERG (Homo sapiens, UniProt Q12809). Description: sync hERG. It is filed as cell-based. In general terms: The hERG channel carries a current that helps repolarise heart muscle cells.
Data set [2] deals with CYPs (all isoforms, or the isoforms not named for that compound). Description: CYP cocktail inhibition, all / other isoforms. The format is in vitro ADME. To be noted: read-out: CYPS IC50 (all / others).
Excerpt: as §1

Data set [3] can be described thus: Mitochondrial toxicity (Glu/Gal) assay. It is filed as cell-based. To be noted: for Glu/Gal: Gal: galactose medium; for Glu/Gal: Glu: glucose medium.
Excerpt: as §1

A short description of data set [4]: in vitro. To be noted: mouse, hepatocytes.
The test system of another data set is MDCK. Put plainly: MDCK permeability / efflux. To be noted: A to B with inhibitor.
Data set [5] is described as follows: physchem. The format is physicochemical.
Excerpt: as §1

Another data set in a line: AMES II. Conditions: score.
Excerpt: as §1

Data set [6] deals with Mycobacterium tuberculosis strain (EH4.0, GFP-expressing; Test 2: H37Rv). Put plainly: MIC determination against M. tuberculosis, Test 1 (and/or Test 2). The format is cell-based. To be noted: Mycobacterium tuberculosis, H37RV, 168 h, 7 days incubation, fluorescence.
A short description of data set [7]: Chemical stability testing in DMSO, ACN/H2O, ACN/0.1N HCl, ACN/0.1N NaOH (% by LCMS). It is filed as physicochemical. The method, then:
Preliminary Protocol • Add 3 μl of a 10 mM DMSO stock solution to 1 ml of the following solvents in a 1.5 ml HPLC vial. • DMSO (reference solution) • H2O/Acetonitril 1/1 (assay solution) • 0.1N HCl/Acetonitril 1/1 (assay solution) • Mix well, […] LCMS • Compare the chromatograms of the two assay solutions with the reference solution and report the additional peaks as degradation peaks

A short description of data set [8]: physchem.
The next data set has as its target 2C9 (Homo sapiens, UniProt P11712). Description: CYP cocktail inhibition, 2C9. It is filed as in vitro ADME. Conditions: read-out: CYPS IC50 2C9.
Excerpt: as §1

Data set [9] can be described thus: LM Clint (microsomal stability), mouse. It is filed as in vitro ADME.
Excerpt: as §1

For another data set, the target named is 2C19 (Homo sapiens, UniProt P33261). Put plainly: CYP cocktail inhibition, 2C19. It is filed as in vitro ADME. To be noted: read-out: CYPS IC50 2C19.
Excerpt: as §1

Data set [10] can be described thus: Hep t1/2 (hepatocyte stability), mouse. To be noted: hepatocytes.
A further data set has as its target T1, 2C8 (Homo sapiens, UniProt P10632).
T1 sequence (P10632 1-490): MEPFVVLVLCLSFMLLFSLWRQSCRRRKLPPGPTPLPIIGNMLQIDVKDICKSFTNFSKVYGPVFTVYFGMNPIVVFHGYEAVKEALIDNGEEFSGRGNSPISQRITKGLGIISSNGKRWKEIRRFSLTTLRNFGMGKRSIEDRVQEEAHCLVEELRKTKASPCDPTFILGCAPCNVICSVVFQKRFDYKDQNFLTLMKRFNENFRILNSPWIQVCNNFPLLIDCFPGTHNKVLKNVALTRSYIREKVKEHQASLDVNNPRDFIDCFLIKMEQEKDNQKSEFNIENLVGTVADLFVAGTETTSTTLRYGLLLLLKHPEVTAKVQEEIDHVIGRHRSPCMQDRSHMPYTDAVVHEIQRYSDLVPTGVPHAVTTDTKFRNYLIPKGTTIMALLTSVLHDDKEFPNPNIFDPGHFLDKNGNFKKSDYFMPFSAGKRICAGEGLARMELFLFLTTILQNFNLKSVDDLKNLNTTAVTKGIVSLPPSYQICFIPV
Description: CYP cocktail inhibition, 2C8. Conditions: read-out: CYPS IC50 2C8. The format is in vitro ADME.
Excerpt: as §1

Data set [11] in a line: physchem. It is filed as physicochemical. To be noted: for purity: 0.065 mg/mL in SGF with 20% ACN.
Data set [12] is described as follows: MDCK permeability / efflux. Conditions: dog, MDCK.
The nature of data set [13]: in vitro. To be noted: human, plasma.
The nature of data set [14]: in vitro. Conditions: mouse, plasma.
The mark [15] stands for this setting: pH 2, simulated gastric fluid, thermodynamic from solid.
[16] abbreviates: h (human) liver microsomes, read-out: LM Clint.

Usually half-life stands for the time in which the quantity being followed falls by half. As usually defined, the solubility (thermodynamic) is the concentration in solution at equilibrium with solid. A word on the solubility: it is the concentration that dissolves in the medium under given conditions. Read a low solubility as little dissolved substance. Usually efflux ratio stands for a quotient of directional permeabilities that is used to spot active efflux. Usually fraction unbound stands for free concentration divided by total concentration. A higher fraction unbound goes with weak binding.

hERG, sequence (Q12809 whole entry, canonical isoform): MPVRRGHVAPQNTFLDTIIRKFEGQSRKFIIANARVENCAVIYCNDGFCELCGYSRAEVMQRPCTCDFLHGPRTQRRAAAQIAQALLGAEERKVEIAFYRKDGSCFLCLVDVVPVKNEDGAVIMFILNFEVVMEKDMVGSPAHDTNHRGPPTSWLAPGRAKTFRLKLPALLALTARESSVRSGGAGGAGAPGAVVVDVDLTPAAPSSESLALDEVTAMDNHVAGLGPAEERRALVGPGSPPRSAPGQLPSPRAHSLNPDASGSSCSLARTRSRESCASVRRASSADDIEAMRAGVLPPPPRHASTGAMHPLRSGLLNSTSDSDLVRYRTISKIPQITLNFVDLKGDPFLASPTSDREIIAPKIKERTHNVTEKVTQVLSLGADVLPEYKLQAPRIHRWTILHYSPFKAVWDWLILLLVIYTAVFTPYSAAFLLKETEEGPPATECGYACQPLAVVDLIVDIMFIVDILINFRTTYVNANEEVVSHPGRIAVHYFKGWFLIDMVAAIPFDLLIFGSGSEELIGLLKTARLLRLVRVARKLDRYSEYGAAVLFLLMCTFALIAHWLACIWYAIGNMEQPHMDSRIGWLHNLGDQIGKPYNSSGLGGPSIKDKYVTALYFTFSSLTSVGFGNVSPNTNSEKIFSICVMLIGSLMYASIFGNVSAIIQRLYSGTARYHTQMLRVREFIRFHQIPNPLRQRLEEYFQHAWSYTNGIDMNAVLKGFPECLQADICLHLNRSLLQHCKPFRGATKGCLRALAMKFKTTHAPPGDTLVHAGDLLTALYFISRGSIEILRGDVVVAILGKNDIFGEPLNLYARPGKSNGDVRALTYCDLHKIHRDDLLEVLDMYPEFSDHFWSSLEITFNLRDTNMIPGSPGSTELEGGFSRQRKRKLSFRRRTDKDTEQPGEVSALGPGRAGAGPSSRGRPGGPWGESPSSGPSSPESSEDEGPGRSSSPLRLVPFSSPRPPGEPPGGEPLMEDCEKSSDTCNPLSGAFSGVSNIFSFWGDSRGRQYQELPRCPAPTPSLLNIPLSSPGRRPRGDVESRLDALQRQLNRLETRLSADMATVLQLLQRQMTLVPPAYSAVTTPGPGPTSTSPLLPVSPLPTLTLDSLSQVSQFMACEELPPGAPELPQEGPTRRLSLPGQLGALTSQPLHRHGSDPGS
2C19, sequence (P33261 whole entry): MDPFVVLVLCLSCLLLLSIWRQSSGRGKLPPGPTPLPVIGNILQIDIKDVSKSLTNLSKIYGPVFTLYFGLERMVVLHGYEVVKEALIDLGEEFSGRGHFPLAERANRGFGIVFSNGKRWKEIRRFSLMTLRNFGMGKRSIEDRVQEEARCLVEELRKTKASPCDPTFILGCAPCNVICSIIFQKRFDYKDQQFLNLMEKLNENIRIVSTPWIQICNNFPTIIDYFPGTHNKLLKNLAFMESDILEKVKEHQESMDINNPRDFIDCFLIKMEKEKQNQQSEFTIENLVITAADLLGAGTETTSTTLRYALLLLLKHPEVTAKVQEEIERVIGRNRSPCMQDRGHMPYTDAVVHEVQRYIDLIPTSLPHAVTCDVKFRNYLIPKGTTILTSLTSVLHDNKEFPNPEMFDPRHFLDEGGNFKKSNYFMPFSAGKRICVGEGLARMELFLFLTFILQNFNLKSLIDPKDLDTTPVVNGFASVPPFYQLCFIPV
2C9, sequence (P11712 whole entry): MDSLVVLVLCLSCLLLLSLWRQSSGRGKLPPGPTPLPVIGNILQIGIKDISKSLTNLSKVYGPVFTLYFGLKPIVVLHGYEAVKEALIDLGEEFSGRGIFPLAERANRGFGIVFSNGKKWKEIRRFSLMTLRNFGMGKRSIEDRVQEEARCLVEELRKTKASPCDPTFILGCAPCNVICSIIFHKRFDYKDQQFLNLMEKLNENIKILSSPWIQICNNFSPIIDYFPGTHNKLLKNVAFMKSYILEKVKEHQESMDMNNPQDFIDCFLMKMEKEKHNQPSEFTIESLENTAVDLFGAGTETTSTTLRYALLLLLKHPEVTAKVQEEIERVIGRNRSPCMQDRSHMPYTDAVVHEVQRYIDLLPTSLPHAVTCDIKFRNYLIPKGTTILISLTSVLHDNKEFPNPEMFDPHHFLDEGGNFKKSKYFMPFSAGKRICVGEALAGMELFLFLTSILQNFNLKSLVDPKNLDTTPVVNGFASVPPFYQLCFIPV

Take `CCc1nc2ccc(C)cn2c1C(=O)NCc1ccc(-c2cn3c(n2)CN(S(=O)(=O)C(F)(F)F)CC3)cc1` [Compound 79]: the microsomal CLint was 39.8 µL/min/mg in data set [1] (human, microsomes) and 13.2 µL/min/mg in data set [9] (mouse, microsomes). The IC50 against hERG was 30.2 µM; in data set [2] (human) it was over 20 µM; in data set [6], 0.00676 µM; on 2C9, 17.7 µM; on 2C19, 14.4 µM. Moreover, in data set [3], the “Glu/Gal: Gal” value is reported as over 200. Moreover, the “Glu/Gal: Glu” value in data set [3] is recorded as over 200. Moreover, in the data set “in vitro [4]”, the half-life is 43.3 min. Besides, the “MDCK AB+inh” value in the data set on MDCK is 42.7. The solubility (thermodynamic) was 574 µM (≈ 314 µg/mL) in “physchem [5]” (setting [15]) and 0.062 µM (≈ 0.0339 µg/mL) in the data set “physchem [5]” (pH 4, aqueous buffer). In addition, the “AMES II” value in the data set “AMES II” came to 1. Also, the “chemical stability (% by LCMS)” value in data set [7] (0 h, 30 μM) came out at 100%; in [7] (48 h, 30 μM) it was 100%; in data set [7] (48 h, 30 μM, pH 1.6) it was 100%. In addition, the solubility in the data set “physchem [8]” (fassif) was 5.6 µM (≈ 3.06 µg/mL); in “physchem [8]” (fessif), 29.3 µM (≈ 16 µg/mL).
As to `CCc1nc2ncc(C)cn2c1C(=O)NCc1ccc(-c2cc3n(n2)CCN(S(=O)(=O)C(F)(F)F)C3)c(F)c1` [Compound 82], the microsomal CLint worked out at 231 µL/min/mg in data set [1] (setting [16]) and 28 µL/min/mg in data set [9] (m (mouse) liver microsomes, read-out: LM Clint). Also, the IC50 is 20.4 µM at hERG, over 19.5 µM in data set [2], 0.00282 µM in data set [6] and 10.6 µM at 2C8. For the same molecule, in [3], the “Glu/Gal: Gal” value was over 25. Also, in [3], the “Glu/Gal: Glu” value is over 25. Also, the “MDCK AB+inh” value in the data set on MDCK turned out to be 16.2. Moreover, the solubility (thermodynamic) was 12.3 µM (≈ 6.96 µg/mL) in “physchem [5]” (setting [15]) and under 0.02 µM in “physchem [5]” (pH 4, aqueous buffer). In addition, the “AMES II” value in the data set “AMES II” amounted to 1. In addition, in data set [10], the half-life stood at 16.5 min. For the same molecule, the “chemical stability (% by LCMS)” value in [7] (48 h, 30 μM) is 100%; in data set [7] (48 h, 30 μM, pH 1.6), 100%. Further, the solubility was 24.5 µM (≈ 13.9 µg/mL) in the data set “physchem [8]” (fassif) and 8.8 µM (≈ 4.98 µg/mL) in “physchem [8]” (fessif).
As to `CCc1nc2ncc(Cl)cn2c1C(=O)NCc1ccc(-c2nc3n(n2)CCN(S(=O)(=O)C(F)(F)F)C3)cc1` [Compound 2], the microsomal CLint in [1] (setting [16]) is 9.3 µL/min/mg. For the same molecule, the IC50 against hERG was over 30 µM; in data set [2] it was over 20 µM; in [6], 0.01 µM. Moreover, the “Glu/Gal: Gal” value in data set [3] is reported as over 100. Further, the “Glu/Gal: Glu” value in [3] is listed as over 100. In addition, the purity in “physchem [11]” (at 0 hr) came out at 99.56%; in the data set “physchem [11]” (at 0.25 hr), 99.38%; in “physchem [11]” (at 0.5 hr), 99.21%; in the data set “physchem [11]” (at 1 hr), 98.89%; in the data set “physchem [11]” (at 2 hr), 98.28%; in the data set “physchem [11]” (at 4 hr) it was 97.1%. Also, the half-life at 0.065 mg/mL in the data set “physchem [11]” (simulated gi fluid) was 113 h. Moreover, in data set [12], the efflux ratio came to 12.6. Besides, the “MDCK AB+inh” value with MDCK worked out at 32.5. The solubility (thermodynamic) was 0.99 µM (≈ 0.563 µg/mL) in “physchem [5]” (setting [15]) and under 0.13 µM in “physchem [5]” (pH 7, aqueous buffer, thermodynamic from solid). In addition, the fraction unbound was found to be 0.0117 in the data set “in vitro [13]” and 0.0054 in the data set “in vitro [14]”. Besides, in “AMES II”, the “AMES II” value is reported as 1. The “chemical stability (% by LCMS)” value in data set [7] (72 h, 30 µM) was determined as 100%; in data set [7] (72 h, 30 µM, pH 1.6) it was 90.52%. Moreover, the figures for the solubility in “physchem [8]” (fassif) and in “physchem [8]” (fessif) were under 5 µM and 24.4 µM (≈ 13.9 µg/mL), respectively.
